Measurements reported in US9133183B2, “Imidazolidinones and analogs exhibiting anti-cancer and anti-proliferative activities” (Deciphera Pharmaceuticals, LLC, priority 2013, dated 2015).

Legend:
[1] = tested on: MDA-MB-231-luc-D3H2LN human breast carcinoma xenograft; experiment: MDA-MB-231 xenograft study; format: in vivo, mouse; conditions: orally dosed at 30 mg/kg twice daily
Method: MDA-MB-231 Xenograft Study
To evaluate the in vivo anti-cancer activity compounds of formula I, a MDA-MB-231-luc-D3H2LN human breast carcinoma xenograft was employed. Briefly, MDA-MB-231-luc-D3H2LN cells were obtained from Xenogen and expanded in Minimal Essential Media (MEM) with EBSS which was modified with 1% L-glutamine and supplemented with 10% FBS, 1% PSG, 1% non-essential amino acids, and 1% sodium pyruvate. The growth environment was maintained in an incubator with a 5% CO2 atmosphere at 37° C. Cells were harvested and re-suspended using 50% serum-free media and 50% Matrigel® to generate a stock concentration of 5×10^6 cells/mL.
Six to 7 week old female C.B-17/IcrHsd-PrkdcscidLystbg mice were injected with 200 μL of cell suspension subcutaneously, just below the right axilla. All procedures carried out in this experiment were conducted in compliance with all the laws, regulations and guidelines of the National Institutes of Health (NIH). Treatment began when the mean tumor burden was approximately 150 mg. All mice were dosed with test compound by oral gavage. Body weights and tumor measurements were recorded three times weekly. […] Images were analyzed using Living Image (Xenogen, Alameda, Calif.) software. […]

PC-3 M-luc cells = experiment: PC-3 peritibial implant model of cancer bone metastasis; format: in vivo, mouse; conditions: oral dose of 30 mg/kg twice daily; lesion score of 4 in vehicle-treated animals; scale 0-4
Description: PC-3 Peritibial Implant Model of Cancer Bone Metastasis
To evaluate in vivo anti-cancer activity of compounds of formula I, the PC-3 M-luc peritibial injection model of bone invasiveness model was employed. Briefly, PC-3 M-luc cells were obtained from Xenogen Corporation (Caliper Life Sciences) and expanded using MEM media modified with L-Glutamine (Cell Gro® #10-045-CV) supplemented with 10% fetal bovine serum, 1% penicillin-streptomycin-glutamine, 1% non-essential amino acids, and 1% MEM vitamins in 5% CO2 atmosphere at 37° C. Six to 7 week old male nude mice (Crl:NU-Foxn1nu) were obtained from Charles River Laboratories. Test mice were implanted peritibially on Day 0 with 1×10^6 cells/mouse (0.1 ml) using an insulin syringe with a fixed 28-gauge needle. The needle was inserted at the ankle between the tibia and fibula until the bevel of the needle reached approximately half way between the knee and ankle. Treatments began on Day 0. Animals were dosed by oral gavage twice daily for the study duration. […]
Isosurface volume renderings were used to delineate lesions in the hind limbs. […] Lesions in the right hind limb were scored with values of 0, 1, 2, 3, or 4 based on a qualitative assessment of lesion size as defined by: • 0: Normal Bone • 1: Minimal lesions. […]

## COCCN1CCN(C(=O)Nc2ccc(Oc3ccnc(-c4cnn(C)c4)c3)c(C)n2)C1=O [Example 18, 3-(2-methoxyethyl)-N-(6-methyl-5-((2-(1-methyl-1H-pyrazol-4-yl)pyridin-4-yl)oxy)pyridin-2-yl)-2-oxoimidazolidine-1-carboxamide]
[1]
  tumor growth inhibition: 51%

## CCN1CCN(C(=O)Nc2ccc(Oc3ccnc(-c4cnn(C)c4)c3)c(C)n2)C1=O [Example 42, 3-ethyl-N-(6-methyl-5-((2-(1-methyl-1H-pyrazol-4-yl)pyridin-4-yl)oxy)pyridin-2-yl)-2-oxoimidazolidine-1-carboxamide]
PC-3 M-luc cells
  lesion score: 2
